In BindingDB's records for doi:10.1124/jpet.104.081257 (Abbott Laboratories, 2005):

Experiments:
[1] = biological target: Progesterone receptor (Homo sapiens) (UniProt P06401)
[2] = biological target: T1, Mineralocorticoid receptor (Rattus norvegicus, UniProt P22199)
T1 sequence (P22199 whole entry): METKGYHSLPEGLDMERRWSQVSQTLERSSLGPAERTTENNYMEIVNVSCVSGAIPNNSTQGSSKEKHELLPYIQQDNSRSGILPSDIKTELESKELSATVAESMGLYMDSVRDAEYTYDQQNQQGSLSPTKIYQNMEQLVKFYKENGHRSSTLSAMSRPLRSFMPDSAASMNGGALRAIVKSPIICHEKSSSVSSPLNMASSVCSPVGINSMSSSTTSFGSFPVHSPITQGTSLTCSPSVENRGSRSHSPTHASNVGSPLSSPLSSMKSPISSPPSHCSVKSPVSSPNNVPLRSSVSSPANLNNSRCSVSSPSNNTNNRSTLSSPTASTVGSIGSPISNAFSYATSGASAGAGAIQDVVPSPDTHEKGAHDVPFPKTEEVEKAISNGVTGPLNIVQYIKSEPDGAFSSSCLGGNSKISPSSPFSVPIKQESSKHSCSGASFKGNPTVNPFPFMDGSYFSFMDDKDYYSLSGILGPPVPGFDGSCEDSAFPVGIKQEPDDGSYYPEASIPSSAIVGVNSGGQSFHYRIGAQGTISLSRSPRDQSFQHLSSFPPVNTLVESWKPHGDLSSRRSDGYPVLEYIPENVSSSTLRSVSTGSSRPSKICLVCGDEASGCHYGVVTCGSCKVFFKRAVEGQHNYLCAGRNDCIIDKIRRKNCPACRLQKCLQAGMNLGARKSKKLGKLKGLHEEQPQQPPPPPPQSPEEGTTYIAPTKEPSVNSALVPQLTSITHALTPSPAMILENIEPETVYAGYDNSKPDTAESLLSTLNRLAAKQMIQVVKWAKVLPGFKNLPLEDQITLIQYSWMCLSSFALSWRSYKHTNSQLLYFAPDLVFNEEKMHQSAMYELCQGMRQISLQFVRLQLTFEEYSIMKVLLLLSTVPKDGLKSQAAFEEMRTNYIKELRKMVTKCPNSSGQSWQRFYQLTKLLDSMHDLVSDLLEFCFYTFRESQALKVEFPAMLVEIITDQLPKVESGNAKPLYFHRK

[3] = biological target: T2, Thyroid hormone receptor beta (Rattus norvegicus, UniProt P18113)
T2 sequence (P18113 whole entry): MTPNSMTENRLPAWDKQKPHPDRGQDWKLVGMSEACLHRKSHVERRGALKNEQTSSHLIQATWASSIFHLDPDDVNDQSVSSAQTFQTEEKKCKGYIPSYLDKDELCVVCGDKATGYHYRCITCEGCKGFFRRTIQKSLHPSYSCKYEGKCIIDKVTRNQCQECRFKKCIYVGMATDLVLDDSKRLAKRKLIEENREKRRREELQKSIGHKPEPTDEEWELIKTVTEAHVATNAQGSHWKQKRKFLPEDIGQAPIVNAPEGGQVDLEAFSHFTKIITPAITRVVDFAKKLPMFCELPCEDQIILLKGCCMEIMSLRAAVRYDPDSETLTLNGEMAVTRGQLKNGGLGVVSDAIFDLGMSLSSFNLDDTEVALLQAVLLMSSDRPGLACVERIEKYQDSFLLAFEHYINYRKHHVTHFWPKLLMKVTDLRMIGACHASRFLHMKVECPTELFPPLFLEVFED

[4] = biological target: T3, Thyroid hormone receptor alpha (Rattus norvegicus, UniProt P63059)
T3 sequence (P63059 whole entry): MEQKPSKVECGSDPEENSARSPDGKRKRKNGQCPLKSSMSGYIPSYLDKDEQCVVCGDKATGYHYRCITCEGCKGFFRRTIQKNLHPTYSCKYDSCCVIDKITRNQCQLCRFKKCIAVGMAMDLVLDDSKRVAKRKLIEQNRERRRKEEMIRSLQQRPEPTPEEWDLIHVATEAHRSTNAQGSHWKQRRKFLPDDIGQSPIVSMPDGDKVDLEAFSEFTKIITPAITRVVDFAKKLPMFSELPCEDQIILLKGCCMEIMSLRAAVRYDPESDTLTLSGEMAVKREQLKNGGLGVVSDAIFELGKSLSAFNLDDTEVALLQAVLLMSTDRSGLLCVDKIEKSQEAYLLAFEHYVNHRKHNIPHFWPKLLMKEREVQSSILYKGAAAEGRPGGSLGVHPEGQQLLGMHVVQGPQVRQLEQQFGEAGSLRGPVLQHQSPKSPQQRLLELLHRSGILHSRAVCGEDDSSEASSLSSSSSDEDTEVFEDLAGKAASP

Estrogen receptor beta = Estrogen receptor beta (Homo sapiens, UniProt Q92731)
Sequence of Estrogen receptor beta (Q92731 whole entry): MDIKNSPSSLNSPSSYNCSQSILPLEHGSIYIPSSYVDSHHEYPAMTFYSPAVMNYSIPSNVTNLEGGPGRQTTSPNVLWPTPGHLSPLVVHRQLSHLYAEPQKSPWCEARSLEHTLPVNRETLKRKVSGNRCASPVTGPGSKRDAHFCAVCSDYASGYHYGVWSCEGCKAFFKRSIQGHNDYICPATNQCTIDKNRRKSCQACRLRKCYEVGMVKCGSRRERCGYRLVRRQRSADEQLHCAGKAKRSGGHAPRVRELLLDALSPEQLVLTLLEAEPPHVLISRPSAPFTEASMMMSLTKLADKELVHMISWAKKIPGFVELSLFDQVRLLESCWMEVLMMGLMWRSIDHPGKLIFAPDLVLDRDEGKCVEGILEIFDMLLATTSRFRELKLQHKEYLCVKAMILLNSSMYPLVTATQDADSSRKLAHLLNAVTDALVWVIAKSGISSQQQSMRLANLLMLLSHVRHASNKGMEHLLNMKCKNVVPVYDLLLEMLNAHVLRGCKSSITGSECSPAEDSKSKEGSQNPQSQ

Glucocorticoid receptor = biological target: T4, Glucocorticoid receptor (Rattus norvegicus, UniProt P06536)
T4 sequence (P06536 whole entry): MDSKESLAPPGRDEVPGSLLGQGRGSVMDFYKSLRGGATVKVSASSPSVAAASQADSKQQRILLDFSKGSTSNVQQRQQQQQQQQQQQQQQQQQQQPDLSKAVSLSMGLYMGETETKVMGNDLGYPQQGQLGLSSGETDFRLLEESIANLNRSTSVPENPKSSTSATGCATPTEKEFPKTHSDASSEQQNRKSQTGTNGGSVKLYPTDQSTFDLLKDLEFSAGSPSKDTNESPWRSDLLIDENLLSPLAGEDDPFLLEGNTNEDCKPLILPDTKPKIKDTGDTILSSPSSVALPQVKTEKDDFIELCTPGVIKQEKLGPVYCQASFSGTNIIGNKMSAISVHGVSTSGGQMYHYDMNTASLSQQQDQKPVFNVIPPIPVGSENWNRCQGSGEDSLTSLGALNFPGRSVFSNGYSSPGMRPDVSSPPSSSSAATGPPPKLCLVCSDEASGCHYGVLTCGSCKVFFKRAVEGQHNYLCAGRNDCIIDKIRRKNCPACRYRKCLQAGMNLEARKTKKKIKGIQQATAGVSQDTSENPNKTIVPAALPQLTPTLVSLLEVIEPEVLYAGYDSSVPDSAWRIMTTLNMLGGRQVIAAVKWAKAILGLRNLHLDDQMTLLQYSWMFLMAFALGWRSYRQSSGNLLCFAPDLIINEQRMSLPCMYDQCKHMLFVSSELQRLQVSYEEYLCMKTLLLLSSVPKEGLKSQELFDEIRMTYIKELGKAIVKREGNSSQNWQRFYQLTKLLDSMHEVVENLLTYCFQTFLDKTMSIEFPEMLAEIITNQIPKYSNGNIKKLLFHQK

Estrogen receptor = biological target: T5, Estrogen receptor (Rattus norvegicus, UniProt P06211)
T5 sequence (P06211 whole entry): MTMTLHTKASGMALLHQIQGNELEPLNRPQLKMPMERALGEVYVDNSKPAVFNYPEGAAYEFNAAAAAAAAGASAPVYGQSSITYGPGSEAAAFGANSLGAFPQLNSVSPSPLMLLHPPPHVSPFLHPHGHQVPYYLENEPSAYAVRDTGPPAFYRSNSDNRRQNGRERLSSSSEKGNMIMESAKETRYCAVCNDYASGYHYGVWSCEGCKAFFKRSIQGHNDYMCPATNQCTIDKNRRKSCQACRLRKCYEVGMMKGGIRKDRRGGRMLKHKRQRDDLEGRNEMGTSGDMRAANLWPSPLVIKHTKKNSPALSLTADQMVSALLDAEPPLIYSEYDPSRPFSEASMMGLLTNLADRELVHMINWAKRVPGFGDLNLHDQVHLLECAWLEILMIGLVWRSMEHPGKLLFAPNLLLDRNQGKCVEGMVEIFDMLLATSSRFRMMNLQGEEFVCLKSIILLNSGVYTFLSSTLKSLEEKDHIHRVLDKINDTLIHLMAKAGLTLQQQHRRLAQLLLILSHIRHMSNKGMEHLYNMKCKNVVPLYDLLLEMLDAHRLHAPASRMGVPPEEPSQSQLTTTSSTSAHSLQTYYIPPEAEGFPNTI

Sequence of Progesterone receptor (Homo sapiens) (P06401 whole entry, looked up): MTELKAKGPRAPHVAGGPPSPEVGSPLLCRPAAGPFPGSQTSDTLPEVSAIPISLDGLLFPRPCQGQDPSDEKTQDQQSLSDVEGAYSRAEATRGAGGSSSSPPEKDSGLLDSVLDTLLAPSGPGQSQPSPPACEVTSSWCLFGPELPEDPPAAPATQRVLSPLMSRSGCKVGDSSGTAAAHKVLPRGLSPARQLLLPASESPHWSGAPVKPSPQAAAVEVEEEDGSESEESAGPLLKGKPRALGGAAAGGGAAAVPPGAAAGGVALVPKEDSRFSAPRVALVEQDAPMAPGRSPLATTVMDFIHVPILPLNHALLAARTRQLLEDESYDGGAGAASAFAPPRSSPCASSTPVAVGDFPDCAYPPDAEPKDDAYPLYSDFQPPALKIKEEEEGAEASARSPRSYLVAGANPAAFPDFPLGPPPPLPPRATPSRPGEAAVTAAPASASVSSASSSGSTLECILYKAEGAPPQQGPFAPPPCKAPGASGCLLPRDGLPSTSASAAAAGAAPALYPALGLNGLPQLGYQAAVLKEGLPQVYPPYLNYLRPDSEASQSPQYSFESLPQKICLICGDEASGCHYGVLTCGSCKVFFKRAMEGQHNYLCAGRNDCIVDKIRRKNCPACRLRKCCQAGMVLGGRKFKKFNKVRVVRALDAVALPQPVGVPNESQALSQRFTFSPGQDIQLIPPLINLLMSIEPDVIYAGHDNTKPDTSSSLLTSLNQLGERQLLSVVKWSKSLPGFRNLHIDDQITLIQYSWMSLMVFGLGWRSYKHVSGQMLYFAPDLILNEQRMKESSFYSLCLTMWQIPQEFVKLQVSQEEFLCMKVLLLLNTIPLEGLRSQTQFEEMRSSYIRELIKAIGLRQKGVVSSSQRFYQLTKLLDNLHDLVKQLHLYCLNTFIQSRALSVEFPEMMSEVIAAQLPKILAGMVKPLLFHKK

SMILES	Ki [1]	Ki [2]	Ki [3]	Ki [4]	Ki (Estrogen receptor beta)	Ki (Glucocorticoid receptor)	Ki (Estrogen receptor)
CC#C[C@]1(O)CC[C@H]2[C@@H]3CCC4=CC(=O)CCC4=C3[C@@H](c3ccc(N(C)CCO[C@H]4CCC5C(C4)C[C@@H](O)C4C5C[C@H](O)C5C(C(C)CCC(=O)O)CCC45)cc3)C[C@@]21C (stereo partly specified) [A-348441]	0.81 nM	440 nM	1500 nM	670 nM	110 nM	0.27 nM	12 nM
CC#C[C@]1(O)CC[C@H]2[C@@H]3CCC4=CC(=O)CCC4=C3[C@@H](c3ccc(N(C)C)cc3)C[C@@]21C [CAS_84371-65-3]	–	640 nM	> 2250 nM	> 1250 nM	–	–	> 200 nM
